Data on three compounds can be found in ChEMBL document CHEMBL6071190, “Discovery of BAY 2666605, a Molecular Glue for PDE3A and SLFN12” (ACS Med Chem Lett, 2024).

Where only a bound is given, the exact number is not on record here.

One data set relates to HeLa. Briefly: Antiproliferative activity against human HeLa cells incubated for 72 hrs by Cell Titer Glo luminescence assay. It is filed as functional, cell-based.
Data set [1] has as its target cGMP-inhibited 3',5'-cyclic phosphodiesterase 3A (Homo sapiens, UniProt Q14432). Briefly: Inhibition of human full-length PDE3A expressed in Sf9 cells using [8-3H]adenosine 3', 5'-cyclic phosphate as substrate incubated for 60 mins by microbeta scintillation counting method.
Data set [2] can be described thus: Selectivity ratio of IC50 for inhibition of full-length human PDE3A expressed in Sf9 cells to EC50 for antiproliferative activity against human HeLa cells.
The test system of another data set is SK-MEL3. As to the kind of experiment: Antiproliferative activity against human SK-MEL3 cells incubated for 72 hrs by Cell Titer Glo luminescence assay. The following applies: SK-MEL3, 72 h. In kind it is functional, cell-based. Background: Cellular ATP, detected with luciferase, serves as a proxy for viable cell number.
A short description of data set [3]: Metabolic stability in rat hepatocytes assessed as bioavailability at 1 uM measured upto 90 mins by LC-MS/MS analysis. In kind it is ADME, Hepatocyte.
Data set [4] in a line: Metabolic stability in mouse hepatocytes assessed as bioavailability at 1 uM measured upto 90 mins by LC-MS/MS analysis. In kind it is ADME, Hepatocyte.
The subject of a further data set is Hs-578T. Briefly: Antiproliferative activity against human Hs-578T cells incubated for 72 hrs by Cell Titer Glo luminescence assay. In kind it is functional, cell-based.
The subject of a further data set is DK-MG. As to the kind of experiment: Antiproliferative activity against human DK-MG cells incubated for 72 hrs by Cell Titer Glo luminescence assay. It is filed as functional, cell-based.
Data set [5] is described as follows: Antiproliferative activity against human NCI-H2172 cells incubated for 72 hrs by Cell Titer Glo luminescence assay. In kind it is functional, cell-based. To be noted: NCI-H2172, 72 h.
Data set [6] is described as follows: Antiproliferative activity against human NCI-H196 cells incubated for 72 hrs by Cell Titer Glo luminescence assay. In kind it is functional, cell-based. The following applies: NCI-H196, 72 h.
Another data set has as its system A2058. Briefly: Antiproliferative activity against human A2058 cells incubated for 72 hrs by Cell Titer Glo luminescence assay. It is filed as functional, cell-based. To be noted: A2058, 72 h.
For another data set, the system named is C32. Briefly: Antiproliferative activity against human C32 cells incubated for 72 hrs by Cell Titer Glo luminescence assay. In kind it is functional, cell-based. To be noted: C32, 72 h.
A further data set has as its system RVH-421. As to the kind of experiment: Antiproliferative activity against human RVH-421 cells incubated for 72 hrs by Cell Titer Glo luminescence assay. It is filed as functional, cell-based. The following applies: RVH-421, 72 h.
Data set [7] in a line: Antiproliferative activity against human L3.3 cells incubated for 72 hrs by Cell Titer Glo luminescence assay. It is filed as functional, cell-based. The following applies: L3.3, 72 h.
The nature of data set [8]: Clearance in mouse blood. In kind it is ADME, tissue-based.
Data set [9] in a line: Metabolic stability in dog hepatocytes assessed as bioavailability at 1 uM measured upto 90 mins by LC-MS/MS analysis. In kind it is ADME, Canis lupus familiaris, Hepatocyte.
Data set [10] in a line: Metabolic stability in human hepatocytes assessed as bioavailability at 1 uM measured upto 90 mins by LC-MS/MS analysis. It is filed as ADME, Hepatocyte.
Data set [11] can be described thus: Clearance in rat blood. In kind it is ADME, tissue-based.
Data set [12] in a line: Half life in iv dosed mouse. The following applies: in vivo. It is filed as ADME, organism-based.
Data set [13] can be described thus: Half life in iv dosed rat. It is filed as ADME, organism-based. The following applies: in vivo.
Data set [14] is described as follows: Half life in iv dosed dog. To be noted: in vivo. It is filed as ADME, organism-based, Canis lupus familiaris.
Data set [15] is described as follows: Oral bioavailability in rat. To be noted: in vivo. In kind it is ADME, organism-based.
Data set [16] in a line: Oral bioavailability in dog. It is filed as ADME, organism-based, Canis lupus familiaris. The following applies: in vivo.
Data set [17] is described as follows: Protein binding in plasma (unknown origin). It is filed as ADME, cell-free. The following applies: read-out: PPB (converted).
Another data set deals with IGR-37 cell line. As to the kind of experiment: Antitumor activity against human IGR-37 cells xenografted in po dosed NMRI nude mouse assessed as tumor growth inhibition administered twice daily. In kind it is functional, organism-based. To be noted: dose 0.5-2.5 mg/kg. In general terms: A xenograft is tissue or cells of one species grown in another, often human tumour cells in immunodeficient mice.

A short description of data set [18]: Toxicity in NOD-SCID mouse assessed as tolerability at 10 mg/kg, po BID. To be noted: in vivo. It is filed as organism-based.
A short description of data set [19]: Toxicity in NOD-SCID mouse assessed as weight loss at 10 mg/kg, po BID. The following applies: in vivo. It is filed as organism-based.
The subject of the next data set is GB-1. Briefly: Antiproliferative activity against human GB-1 cells incubated for 72 hrs by CellTiter-Glo luminescence assay. In kind it is functional, cell-based. To be noted: GB-1, 72 h.
Data set [20] is described as follows: Antiproliferative activity against human IGR-37 cell line. It is filed as functional, cell-based.
A short description of data set [21]: Oral bioavailability in mouse. It is filed as ADME, organism-based. The following applies: in vivo.

Chain of cGMP-inhibited 3',5'-cyclic phosphodiesterase 3A (Q14432 whole entry): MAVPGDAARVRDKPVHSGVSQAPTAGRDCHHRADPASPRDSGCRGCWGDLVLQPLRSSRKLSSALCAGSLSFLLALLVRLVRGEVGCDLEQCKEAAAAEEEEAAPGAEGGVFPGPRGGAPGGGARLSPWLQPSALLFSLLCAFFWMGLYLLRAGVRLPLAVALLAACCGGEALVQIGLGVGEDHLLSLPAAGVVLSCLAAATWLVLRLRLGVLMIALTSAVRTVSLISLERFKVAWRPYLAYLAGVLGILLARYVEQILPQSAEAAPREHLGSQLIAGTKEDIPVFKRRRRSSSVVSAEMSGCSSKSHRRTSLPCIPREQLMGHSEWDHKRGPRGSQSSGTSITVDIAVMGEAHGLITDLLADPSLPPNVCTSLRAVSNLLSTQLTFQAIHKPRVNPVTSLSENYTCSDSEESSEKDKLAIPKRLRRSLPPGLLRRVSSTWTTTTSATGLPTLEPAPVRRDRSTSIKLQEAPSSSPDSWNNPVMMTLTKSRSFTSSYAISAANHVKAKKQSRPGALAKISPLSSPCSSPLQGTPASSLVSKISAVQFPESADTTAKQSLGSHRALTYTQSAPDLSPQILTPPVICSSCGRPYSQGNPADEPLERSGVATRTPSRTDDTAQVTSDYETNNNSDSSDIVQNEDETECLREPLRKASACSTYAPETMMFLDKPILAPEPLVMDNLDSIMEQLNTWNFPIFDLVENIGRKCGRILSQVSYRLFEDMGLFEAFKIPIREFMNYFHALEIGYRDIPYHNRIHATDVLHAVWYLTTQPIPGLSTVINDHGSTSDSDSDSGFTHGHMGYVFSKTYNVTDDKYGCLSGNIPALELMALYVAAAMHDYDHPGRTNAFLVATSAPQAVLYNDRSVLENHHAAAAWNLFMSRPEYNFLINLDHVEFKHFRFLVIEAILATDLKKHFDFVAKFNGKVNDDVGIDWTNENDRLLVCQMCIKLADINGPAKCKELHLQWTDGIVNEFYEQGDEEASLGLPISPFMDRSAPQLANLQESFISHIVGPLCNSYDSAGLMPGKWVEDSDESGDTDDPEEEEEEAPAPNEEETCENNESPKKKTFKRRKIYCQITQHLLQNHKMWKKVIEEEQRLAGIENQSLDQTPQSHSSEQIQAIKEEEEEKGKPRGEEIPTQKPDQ

The term EC50 denotes the concentration at which the effect is half-maximal. Usually IC50 stands for the concentration that inhibits the measured activity by half. Read a low IC50 as greater potency in that assay. Usually clearance stands for the rate of elimination divided by the concentration. Higher therefore signals efficient removal. `C[C@@H]1OC(=O)NN=C1c1ccc(-c2cnn(C(F)F)c2)c(C(F)(F)F)c1`: the EC50 with HeLa stood at 0.18 nM; in the data set with SK-MEL3, 0.38 nM; with Hs-578T, 20 nM; in the data set on DK-MG, 13 nM; in data set [5] it was 37 nM; in [6], 32 nM. Further, the EC50 in the data set on A2058 is 25 nM; in the data set with C32 it was 52 nM; in the data set with RVH-421 it was 47 nM; in [7] it was 15 nM. This compound registered an IC50 in [1] of 37 nM. Also, in data set [2], the “Ratio IC50/EC50” value is on record as 202. For the same compound, the predicted hepatic bioavailability (Fh) from hepatocyte stability at 1 µM in data set [3] is 99%. For the same compound, the Fh at 1.5 h, 1 µM in data set [4] was 27%; in data set [9], 69%. The compound also gave a clearance in [8] of 197 mL/min/kg. In data set [10], the hepatic bioavailability predicted from hepatocyte stability (Fh) at 1 µM is 32%.
In general, half-life refers to the time in which the quantity being followed falls by half. As a reminder, the bioavailability is the share of a dose that reaches the circulation, judged against a reference dose that is usually intravenous. Higher therefore signals good availability. Turning to `C[C@@H]1OC(=O)NN=C1c1ccc(-c2ccc(F)cc2)c(C(F)(F)F)c1`, the EC50 came to 1.04 nM in the data set with HeLa; 2.81 nM in the data set on SK-MEL3; 33 nM in the data set with Hs-578T; 22 nM in the data set on DK-MG; 38 nM in [5]; 150 nM in data set [6]. For the same compound, the EC50 worked out at 38 nM with A2058; 58 nM in the data set with C32; 140 nM in the data set on RVH-421; 82 nM in data set [7]; 8 nM in the data set on GB-1; 3.1 nM in [20]. In data set [1], this compound came in with an IC50 of 82 nM. Also, the “Ratio IC50/EC50” value in data set [2] amounted to 79. The predicted hepatic bioavailability (Fh) from hepatocyte stability at 1 µM in data set [3] is 94%. Also, the Fh at 1.5 h, 1 µM in data set [4] came to 85%; in data set [9] it was 70%. The figures for the clearance in data set [11] and in data set [8] were 4.17 mL/min/kg and 12.5 mL/min/kg, respectively. Further, the half-life was 4.6 h in data set [12], 15 h in data set [13] and 13 h in data set [14]. Moreover, the bioavailability in data set [15], in data set [16] and in data set [21] was over 95% in each case. Further, the fraction unbound in data set [17] was 0.002. The Activity entry was “Dose-Dependent Effect” in the data set with IGR-37 cell line, “Non-Toxic” in data set [18] and “Non-Toxic” in [19]. In addition, in data set [10], the hepatic bioavailability predicted from hepatocyte stability (Fh) at 1 µM is 73%.
As to `C[C@@H]1OC(=O)NN=C1c1ccc(-n2cc(C(F)(F)F)cn2)c(C(F)(F)F)c1`, the EC50 came to 2.29 nM in the data set with HeLa; 5.26 nM in the data set with SK-MEL3; 116 nM with Hs-578T; 59 nM in the data set with DK-MG; 101 nM in [5]; 355 nM in [6]. Besides, the EC50 with A2058 turned out to be 96 nM; with C32, 132 nM; in the data set on RVH-421, 262 nM; in data set [7] it was 312 nM. This compound yielded an IC50 in [1] of 607 nM. For the same compound, the “Ratio IC50/EC50” value in data set [2] is given as 265. In addition, the predicted hepatic bioavailability (Fh) from hepatocyte stability at 1 µM in data set [3] was 93%. Further, the Fh at 1.5 h, 1 µM came out at 63% in data set [4] and 87% in [9]. Further, the clearance is 8.17 mL/min/kg in data set [11] and 18.3 mL/min/kg in data set [8]. In addition, in data set [10], the hepatic bioavailability predicted from hepatocyte stability (Fh) at 1 µM is 79%.
